We go through four molecules from US12162878B2 (HINOVA PHARMACEUTICALS INC., priority 2018, dated 2024).

As a reminder, the pIC50 is the IC50 on a negative log10 scale, so that one unit is a factor of ten.

The structures appear in SMILES notation. pIC50: −log10 of the molar value.

The test system of assay [1] is MDA-MB-453 cells. Nature of the assay: Inhibition of proliferation of MDA-MB-453 cells (CCK-8). The conditions noted are these: for pIC50: Homo sapiens, 144 h, 6 days, CCK-8. In kind it is cell-based, human. The protocol: • MDA-MB-453 cell line (Cell Bank of Chinese Academy of Sciences, TCHu35) • FBS (Gibco, Cat. No. 10099-141) • 0.01M PBS (Biosharp, Cat. No. 162262) • RIPM1640 (Hyclone, Cat. No. 308090.01) • Penicillin-Streptomycin (Hyclone, Cat. No. SV30010) • Cell counting kit-8 (Signalway Antibody, Cat. No. CP002) • DMSO (Sigma, Cat. No. D5879) • Centrifuge Tube, 15 ml (Excell Bio, Cat. No. CS015-0001) • Cell Culture Dish, (Excell Bio, Cat. No. CS016-0128) • 96-well cell culture cluster (Corning, Cat. No. 3599) 3. Experimental Method
1) MDA-MB-453 cells were subcultured in cell culture media, and the cells in good growth condition were seeded in a 96-well plate, 80 μL for each well, thus the number of cells per well was 1500, then the plate was cultured overnight in a 37° C., 5% CO2 cell incubator.
2) The drug was prepared with dimethyl sulfoxide (DMSO) as a 10 mM stock solution. Prior to use, the solution was diluted 3 times with DMSO, and then diluted with a 3-fold gradient to obtain 9 concentration gradients. Then, each concentration of the compound was further diluted 200 times with the culture media (to ensure that DMSO concentration in the culture system was 0.1%), 2 repeat wells for each concentration. The diluted solution of each compound (20 μL) was added to the cell culture well (with a final concentration of 10 μM, 3.3 μM, 1.1 μM . . . ), and shaken gently for mixing. In addition, three negative control wells containing only cells and three blank control wells containing only culture medium (20 μL DMSO diluted 200 times with culture medium being added to six wells) were included.
(1) After culturing for 6 days, 10 μL CCK-8 was added to each well and cultured for additional 2.5 h in a 37° C., 5% CO2 cell incubator.
(2) The absorbance (OD value) at 450 nm was measured with a multifunctional microplate reader.
(3) The data was analyzed by the Dose-response-inhibition equation in the software GraphPad Prism6, and the IC50 value was obtained.

Assay [2] has as its target BRD3(1,2) (Homo sapiens (Human), UniProt Q15059). The assay is described as follows: AlphaScreen binding of compounds on BRD3 (D1+D2). The conditions noted are these: read-out: IC50 against BRD3(1,2). (Alpha assays give light when donor and acceptor beads are brought close together.)
For assay [3], the target named is BRD4(1,2) (Homo sapiens (Human), UniProt O60885). Nature of the assay: HTRF binding of compounds on BRD4 (D1+D2). The following applies: read-out: IC50 against BRD4(1,2). On the technique in general: Time-resolved FRET reads energy transfer from a long-lived donor to a nearby acceptor.

Chain of BRD3(1,2) (Q15059 29-417): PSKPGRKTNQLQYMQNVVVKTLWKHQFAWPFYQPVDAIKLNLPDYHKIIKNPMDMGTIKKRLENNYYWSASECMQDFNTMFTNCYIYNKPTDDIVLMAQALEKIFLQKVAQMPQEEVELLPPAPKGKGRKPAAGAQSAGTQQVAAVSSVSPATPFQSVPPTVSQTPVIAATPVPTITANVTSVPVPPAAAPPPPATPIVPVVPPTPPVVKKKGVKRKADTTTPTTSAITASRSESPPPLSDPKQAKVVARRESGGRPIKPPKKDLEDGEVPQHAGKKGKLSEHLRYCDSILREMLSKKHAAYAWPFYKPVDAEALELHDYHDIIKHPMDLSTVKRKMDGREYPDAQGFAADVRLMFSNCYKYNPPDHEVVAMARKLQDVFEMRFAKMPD

In the case of `[2H]C([2H])([2H])n1cc(-c2cc(NS(=O)(=O)CC)ccc2N2CCC3(CC2)CC3)c2cc[nH]c2c1=O` [Compound 41], the pIC50 is 7.05 in assay [1], 8.28 in assay [2] and 7.85 in assay [3].
With `[2H]C([2H])([2H])n1cc(-c2cc(S(=O)(=O)CC)ccc2N2CCC3(CC3)C2)c2cc[nH]c2c1=O` [Compound 55, 4-(5(ethylsulfonyl)-2-(5-aza-spiro[2.4]heptan-5-yl)phenyl)-6-trideuteromethyl-1H-pyrrolo[2,3-c]pyridin-7(6H)-one], in assay [1], the “inhibitory action on MDA-MB-453 cells (in words)” value is “effective inhibitory action” and the pIC50 is 7.32.
Regarding `[2H]C([2H])([2H])n1cc(-c2cc(S(C)(=O)=O)ccc2N2CCC3(CC2)CC3(F)F)c2cc[nH]c2c1=O` [Compound 184, 4-(2-(1,1-difluoro-6-aza-spiro[2.5]octan-6-yl)-5-(methylsulfonyl)phenyl)-6-trideuteromethyl-1H-pyrrolo[2,3-c]pyridin-7(6H)-one], the negative-log IC50 (pIC50) is 6.36 in assay [1], 8.33 in assay [2] and 8.16 in assay [3].
As for `[2H]C([2H])([2H])n1cc(-c2cc(S(C)(=O)=O)c(F)cc2N2CCC3(CC2)CC3(F)F)c2cc[nH]c2c1=O` [Compound 219, 4-(2-(1,1-difluoro-6-aza-spiro[2.5]octan-6-yl)-4-fluoro-5-(methylsulfonyl)phenyl)-6-trideuteromethyl-1H-pyrrolo[2,3-c]pyridin-7(6H)-one], the pIC50 was 8.17 in assay [2] and 7.92 in assay [3].
